Experimental data taken from ChEMBL document CHEMBL1201862, “PubChem BioAssay data set” (2004).
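Briefly, cells in 96-well plates were exposed to five compound concentrations for 48 h, and endpoints were estimated by linear interpolation. At the GI50, growth is halved.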 Activity calls are given as the source filed them. Cut-off read from the data, not from the text of the source: active = GI50 up to about 1.1 µM and inactive = higher.

Columns and labels:
Assay in all cases: NCI tumour cell line growth inhibition, 48 h
786-0 = test system: 786-0
DLD-1 = test system: DLD-1
MOLT-4 = test system: MOLT-4
SNB-78 = test system: SNB-78
NCI/ADR-RES = test system: NCI/ADR-RES
NCI-H23 = test system: NCI-H23
BT-549 = test system: BT-549
Malme-3M = test system: Malme-3M
A498 = test system: A498
DMS-273 = test system: DMS-273
XF498 = test system: XF498
MDA-MB-435 = test system: MDA-MB-435
HOP-18 = test system: HOP-18
M19-MEL = test system: M19-MEL
UACC-62 = test system: UACC-62
HOP-92 = test system: HOP-92
LOX IMVI = test system: LOX IMVI
CAKI-1 = test system: CAKI-1
Hs-578T = test system: Hs-578T
MDA-N = test system: MDA-N

Measured: GI50

COc1nc(N)nc2nc[nH]c12
inactive: 786-0 489 µM | DLD-1 385 µM | MOLT-4 474 µM | SNB-78 287 µM | NCI/ADR-RES > 500 µM | NCI-H23 > 500 µM | BT-549 232 µM | Malme-3M 290 µM | A498 228 µM | DMS-273 430 µM | XF498 279 µM | MDA-MB-435 > 500 µM | HOP-18 360 µM | M19-MEL > 500 µM | UACC-62 160 µM | HOP-92 235 µM | LOX IMVI 381 µM | CAKI-1 162 µM | Hs-578T 416 µM | MDA-N > 500 µM
